# Test results reported in patent US7211566B2 (Universite De Sherbrooke, priority 2003, dated 2007).
# Ends that are not written are not given here.
# Assays:
# [1] = target: T1, BKB1 receptor (Homo sapiens, UniProt P46663); test: Isolated human umbilical vein (hUV) organ bath, antagonist potency pA2; assay type: cell-based; set-up: the hUV that contains BKB1 and BKB2 receptors; from tissue; host or cells: isolated human umbilical vein (hUV)
# T1 sequence (P46663 1-353): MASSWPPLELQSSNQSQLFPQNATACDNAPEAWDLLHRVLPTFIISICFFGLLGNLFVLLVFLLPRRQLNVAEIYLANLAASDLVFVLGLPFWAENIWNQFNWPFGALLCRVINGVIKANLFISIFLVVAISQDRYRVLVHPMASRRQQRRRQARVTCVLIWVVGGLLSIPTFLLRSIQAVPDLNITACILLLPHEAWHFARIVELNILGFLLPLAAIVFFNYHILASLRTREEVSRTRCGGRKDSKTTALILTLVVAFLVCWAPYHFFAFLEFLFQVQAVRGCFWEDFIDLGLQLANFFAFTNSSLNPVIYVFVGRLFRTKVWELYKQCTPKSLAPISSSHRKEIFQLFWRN
# Method: (§1) Selected antagonists were tested for activities in three isolated organs: (1) the rabbit aorta (rbA), (2) the human umbilical vein (hUV) and (3) the rabbit jugular vein (rbJV).
# (§2) All details regarding the procurements of human umbilical cords and rabbit vessels as well as, the procedures for preparing the isolated organs and the experimental protocols are described in these respective publications: rbA (Rioux et al. 1973, Can J Physiol Pharmacol 51, 114–121); hUV (Gobeil et al. 1996, Br J Pharmacol 118, 289–294), and rbJV (Gaudreau et al. 1981, Can J Physiol Pharmacol 59, 371–379).
# (§3) The rabbit jugular vein (a pure BKB2 receptor system) was used to exclude any action of the new compounds on the BKB2 receptor and thus establish their selectivity. All tissues were treated with captopril (1 μM) to prevent the degradation of the peptidic agonists.
# (§4) Repeated applications of a single and double concentration of BK (on rbJV,) or of desArg^9BK (rbA and hUV) were made in the absence and in presence of the various peptides to evaluate their apparent affinities as antagonists, in terms of pA2 (-log10 of the molar concentration of antagonist that reduces the effect of a double concentration of agonist to that of a single one) (Schild 1947, Br J Pharmacol 2, 189–206).
# [2] = target: T2, angiotensin converting enzyme (ACE) (Oryctolagus cuniculus, UniProt P12822); test: In vitro metabolic stability against purified rabbit lung ACE; assay type: in vitro ADME; conditions: purified angiotensin converting enzyme from rabbit lung, pH 7.5, peptide 200 μM, 60 min at 37° C., mean ± SEM of 3, read-out: Peptide metabolism (%) Rabbit lung ACE
# T2 construct: In Vitro Biochemical Stability Assays Against Purified Native Enzymes; purchased Sigma, St. Louis, Mo; host or cells: rabbit lung
# T2 sequence (P12822 34-1310): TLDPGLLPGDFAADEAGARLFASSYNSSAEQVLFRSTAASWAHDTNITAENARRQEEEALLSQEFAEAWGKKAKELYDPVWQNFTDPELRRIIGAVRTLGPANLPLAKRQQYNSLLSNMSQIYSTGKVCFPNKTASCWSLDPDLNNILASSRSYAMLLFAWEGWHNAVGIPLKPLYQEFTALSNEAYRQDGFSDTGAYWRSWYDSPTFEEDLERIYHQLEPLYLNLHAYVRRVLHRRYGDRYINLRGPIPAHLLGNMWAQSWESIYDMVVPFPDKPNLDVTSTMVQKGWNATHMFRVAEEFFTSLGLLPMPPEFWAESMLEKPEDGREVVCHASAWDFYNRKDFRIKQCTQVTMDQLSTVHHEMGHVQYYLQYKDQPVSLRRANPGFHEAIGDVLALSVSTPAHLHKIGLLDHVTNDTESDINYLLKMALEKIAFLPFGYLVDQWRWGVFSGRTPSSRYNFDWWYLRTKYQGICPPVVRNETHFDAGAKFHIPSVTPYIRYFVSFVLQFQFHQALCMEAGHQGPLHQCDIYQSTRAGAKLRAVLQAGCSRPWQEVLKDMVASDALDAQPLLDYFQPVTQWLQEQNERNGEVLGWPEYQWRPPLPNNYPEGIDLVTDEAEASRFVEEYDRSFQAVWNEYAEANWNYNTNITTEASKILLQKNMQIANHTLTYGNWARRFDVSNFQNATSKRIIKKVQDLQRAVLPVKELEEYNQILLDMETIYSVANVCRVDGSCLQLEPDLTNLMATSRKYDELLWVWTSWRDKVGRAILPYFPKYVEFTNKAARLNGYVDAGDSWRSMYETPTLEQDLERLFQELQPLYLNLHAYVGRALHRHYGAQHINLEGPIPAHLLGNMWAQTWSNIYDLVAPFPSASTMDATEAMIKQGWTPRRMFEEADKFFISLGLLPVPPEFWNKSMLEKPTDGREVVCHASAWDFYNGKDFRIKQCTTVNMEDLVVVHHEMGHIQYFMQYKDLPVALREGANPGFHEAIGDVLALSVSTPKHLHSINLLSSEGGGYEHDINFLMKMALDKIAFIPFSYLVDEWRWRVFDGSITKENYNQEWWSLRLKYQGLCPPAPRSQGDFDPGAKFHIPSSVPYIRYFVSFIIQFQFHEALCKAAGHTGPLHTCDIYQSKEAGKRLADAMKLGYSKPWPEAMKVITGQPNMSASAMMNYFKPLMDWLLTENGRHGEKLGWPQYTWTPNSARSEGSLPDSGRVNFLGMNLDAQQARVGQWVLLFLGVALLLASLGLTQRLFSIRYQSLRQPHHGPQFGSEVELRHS
# Method: (§5) These assays were performed using three enzyme preparations: purified angiotensin converting enzyme (ACE; from rabbit lung), human plasma as a, source of aminopeptidase M (AmM) and human platelets as a source of aminopeptidase P (AmP).
# Purified ACE from rabbit lungs (Sigma, St. Louis, Mo.) was dissolved in PBS (50 mM, pH 7.5, containing 300 mM NaCl and 10 μM ZnCl2; the final concentration of ACE was 45 μg/ml). Each of the peptide antagonists (200 μM) was incubated for 60 min at 37° C. with ACE (8.5 μl) (total volume medium, 187.5 μl). The enzymatic reaction was then terminated by boiling.
# The experimental protocol for the measurement of ACE activity has been described elsewhere (Drapeau et a). 1993, J Pharmacol Exp Ther 266, 192–198; Gobeil et al., 1996, supra).
# [3] = target: T3, aminopeptidase P (AmP) (Homo sapiens, UniProt Q9NQW7); test: In vitro metabolic stability against human platelets AmP; assay type: in vitro ADME; conditions: mean ± SEM of 3 experiments
# T3 construct: from tissue; host or cells: human platelets, freeze-thawed and sonicated, 43 000 x g supernatant
# Method: as §5
# Human platelet AmP was prepared as described by Maggiora et al. (1999, J Med Chem 42, 2394–2402). Human platelets (40 ml) were centrifuged at 250×g for 7 min at room temperature. The resulting supernatant was recentrifuged at 2790×g for 15 min at room temperature. Pellets were collected, resuspended in 40 ml of phosphate-buffered saline (PBS) containing 3.5% of sodium citrate, and then re-centrifuged at 2790×g for 15 min at room temperature. This washing step was repeated. Pellets were resuspended in 4 ml of PBS-sodium citrate, snap-frozen in liquid nitrogen, thawed at 37° C., sonicated briefly, and then centrifuged at 43 000×g for 2 h at 4° C. (Sorvall RC 5B, ss-34 rotor). The resulting supernatant was used for enzyme assays as described in Neugebauer et al. (Neugebauer et al. 2002, supra).
# [4] = target: T4, aminopeptidase M (AmM) (Homo sapiens, UniProt P15144); test: In vitro metabolic stability against human plasma AmM; assay type: in vitro ADME; conditions: male, human plasma as source of aminopeptidase M, pH 7.5, peptide 200 μM, 60 min incubation, mean ± SEM of 3, read-out: Peptide metabolism (%) Human plasma AmM
# T4 construct: incubated for 60 min with 50 μl of human plasma; from tissue; host or cells: human plasma from heparinized blood of healthy male volunteers
# Method: as §5
# Human plasma AmM was prepared as previously described (Gobeil et al., 1999, Hypertension, 33, 823–829). Blood (5 ml) was withdrawn from healthy normotensive male Caucasian volunteers and put into heparinized tube (200 U). Blood samples were centrifuged at 1500 rpm for 15 min in a refrigerated tabletop centrifuge. The peptide antagonists (200 μM) were placed in a PBS buffer (50 mM, pH 7.5, containing 300 mM NaCl) and incubated for 60 min with 50 μl of human plasma (total volume of the medium, 375 μl). Immersing samples into boiling water and then cooling them on ice stopped the hydrolysis reaction. Control experiments have shown that ≈70% of the kininase activity that is present in the human plasma is abolished by amastatin (1 μM) and that the incubation of Lys-[Leu^8]desArg^9BK with this enzymatic preparation led to the production of [Leu^8]desArg^9BK as detected by electrospray mass spectrometry.
# [5] = target: T5, BKB1 receptor (Oryctolagus cuniculus, UniProt P48748); test: Isolated rabbit aorta (rbA) organ bath, antagonist potency pA2; assay type: cell-based; conditions: rabbit aorta without endothelium; mean ± SEM of 4–7 experiments
# T5 construct: The rabbit aorta without endothelium (which contains only the BKB1 receptor); from tissue; host or cells: isolated rabbit aorta (rbA) without endothelium
# T5 sequence (P48748 1-352): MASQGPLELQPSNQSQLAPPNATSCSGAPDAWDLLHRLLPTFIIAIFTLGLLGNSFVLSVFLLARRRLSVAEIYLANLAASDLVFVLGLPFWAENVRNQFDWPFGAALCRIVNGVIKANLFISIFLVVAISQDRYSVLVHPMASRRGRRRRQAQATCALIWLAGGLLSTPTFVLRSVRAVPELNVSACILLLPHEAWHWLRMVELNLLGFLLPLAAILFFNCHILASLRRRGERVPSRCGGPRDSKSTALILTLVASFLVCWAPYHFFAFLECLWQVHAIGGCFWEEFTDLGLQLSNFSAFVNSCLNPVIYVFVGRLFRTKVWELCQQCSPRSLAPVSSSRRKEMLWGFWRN
# Method: as §1, §2
# The rabbit aorta without endothelium (which contains only the BKB1 receptor) was used to determine the antagonistic activities of each compound.
# as §3, §4
# [6] = target: T6, BKB2 receptor (Oryctolagus cuniculus, UniProt Q28642); test: Isolated rabbit jugular vein (rbJV) organ bath, antagonist potency pA2; assay type: cell-based; conditions: BK as agonist
# T6 construct: The rabbit jugular vein (a pure BKB2 receptor system); from tissue; host or cells: isolated rabbit jugular vein (rbJV)
# T6 sequence (Q28642 1-367): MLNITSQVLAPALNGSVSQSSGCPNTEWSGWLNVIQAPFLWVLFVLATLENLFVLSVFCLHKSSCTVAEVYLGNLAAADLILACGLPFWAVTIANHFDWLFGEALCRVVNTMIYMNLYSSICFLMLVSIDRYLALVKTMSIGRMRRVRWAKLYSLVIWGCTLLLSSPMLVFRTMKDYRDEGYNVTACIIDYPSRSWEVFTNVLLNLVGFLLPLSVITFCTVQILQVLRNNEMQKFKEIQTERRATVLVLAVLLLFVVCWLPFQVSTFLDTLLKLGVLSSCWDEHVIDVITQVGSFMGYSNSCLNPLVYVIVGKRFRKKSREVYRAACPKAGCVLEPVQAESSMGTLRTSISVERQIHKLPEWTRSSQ
# Method: as §1, §2, §3, §4
# [7] = tested on: angiotensin converting enzyme (ACE); test: Purified ACE from rabbit lungs (Sigma, St. Louis, Mo.) dissolved in PBS (50 mM, pH 7.5, containing 300 mM NaCl and 10 μM ZnCl2); conditions: 37° C., up to 60 min
# [8] = human plasma as a source of aminopeptidase M (AmM); conditions: up to 60 min
# [9] = tested on: carboxypeptidases of the N type (CPN); conditions: cited from earlier work
# [10] = tested on: carboxypeptidases of the M type (CPM); conditions: cited from earlier work
# T3 sequence (Q9NQW7 whole entry): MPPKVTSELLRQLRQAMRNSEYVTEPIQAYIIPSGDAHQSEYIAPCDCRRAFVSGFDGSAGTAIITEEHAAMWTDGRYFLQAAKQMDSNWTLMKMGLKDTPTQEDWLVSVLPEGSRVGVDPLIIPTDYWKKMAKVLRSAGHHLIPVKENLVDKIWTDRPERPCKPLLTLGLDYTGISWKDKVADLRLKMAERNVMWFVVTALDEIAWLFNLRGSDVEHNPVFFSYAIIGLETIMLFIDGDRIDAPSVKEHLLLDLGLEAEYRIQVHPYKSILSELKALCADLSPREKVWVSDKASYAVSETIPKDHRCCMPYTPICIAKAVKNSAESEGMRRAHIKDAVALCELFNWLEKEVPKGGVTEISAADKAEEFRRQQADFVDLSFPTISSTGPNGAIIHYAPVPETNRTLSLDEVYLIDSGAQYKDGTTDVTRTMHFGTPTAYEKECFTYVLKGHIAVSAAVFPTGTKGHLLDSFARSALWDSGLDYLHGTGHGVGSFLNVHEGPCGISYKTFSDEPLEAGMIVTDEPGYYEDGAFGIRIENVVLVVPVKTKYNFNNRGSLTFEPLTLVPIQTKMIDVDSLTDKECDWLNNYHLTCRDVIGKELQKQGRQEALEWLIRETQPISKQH
# T4 sequence (P15144 whole entry): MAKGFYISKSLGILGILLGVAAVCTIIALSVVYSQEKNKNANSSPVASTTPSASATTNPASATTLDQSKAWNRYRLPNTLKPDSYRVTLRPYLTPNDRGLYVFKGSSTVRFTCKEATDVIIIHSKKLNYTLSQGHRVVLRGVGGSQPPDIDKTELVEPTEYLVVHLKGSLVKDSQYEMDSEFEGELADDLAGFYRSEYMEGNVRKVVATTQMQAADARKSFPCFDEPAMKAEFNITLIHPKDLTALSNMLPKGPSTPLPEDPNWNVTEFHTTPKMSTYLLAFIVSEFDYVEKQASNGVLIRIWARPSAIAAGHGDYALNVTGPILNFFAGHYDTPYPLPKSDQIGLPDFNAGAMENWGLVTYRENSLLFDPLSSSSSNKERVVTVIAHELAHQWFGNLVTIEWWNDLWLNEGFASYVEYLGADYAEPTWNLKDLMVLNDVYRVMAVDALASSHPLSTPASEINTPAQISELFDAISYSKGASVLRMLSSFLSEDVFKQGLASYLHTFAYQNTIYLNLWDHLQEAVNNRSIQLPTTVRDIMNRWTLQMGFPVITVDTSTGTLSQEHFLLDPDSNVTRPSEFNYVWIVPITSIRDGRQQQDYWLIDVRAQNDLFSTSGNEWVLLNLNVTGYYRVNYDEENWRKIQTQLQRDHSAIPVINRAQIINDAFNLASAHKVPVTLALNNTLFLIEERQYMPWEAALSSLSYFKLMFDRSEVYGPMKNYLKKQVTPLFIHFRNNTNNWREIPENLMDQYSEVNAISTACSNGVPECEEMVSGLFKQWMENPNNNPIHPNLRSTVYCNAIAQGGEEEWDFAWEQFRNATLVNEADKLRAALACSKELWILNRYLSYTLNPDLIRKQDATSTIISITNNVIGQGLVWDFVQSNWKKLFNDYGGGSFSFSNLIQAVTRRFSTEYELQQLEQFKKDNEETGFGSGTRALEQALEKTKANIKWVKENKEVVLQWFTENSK
compound,measurement,setting,value
"CC(C)C[C@H](NC(=O)[C@@H]1CCCN1C(=O)[C@H](CO)NC(=O)[C@H](Cc1ccccc1)NC(=O)CNC(=O)[C@@H]1CCCN1C(=O)[C@@H]1CCCN1C(=O)[C@H](CCCN=C(N)N)NC(=O)[C@@H](N)CCCCN)C(=O)O [Lys-[Leu^8]desArg^9-BK, Lys-[Leu^8] desArg^9BK, reference compound]",affinity higher than that of [Leu^8]desArg^9BK,"[1]; BKB1 receptor antagonist affinity, effect of N-terminal Lys",at least 1.5 log units
same,"metabolised at 1 h, 200 µM",[2],93 ± 3%
same,Peptide metabolism (%) Human platelets AmP,[3],99 ± 1%
same,"metabolised at 1 h, 200 µM",[4],100%
"Ac-Lys-[D-βNal^7, Ile^8] desArg^9BK [Ac-Lys-[D-βNal^7, Ile^8]desArg^9-BK, reference compound]",Antagonist potencies (pA2) BKB1-R rbA,[5],8.40 ± 0.12
same,Antagonist potencies (pA2) BKB1-R hUV,"[1]; human umbilical vein treated with HOE 140, mean ± SEM of 4–7 experiments",8.49 ± 0.10
same,Antagonist potencies (pA2) BKB2-R rbJV,[6],<6.00
"Ac-Lys[Oic^2,(α-Me)Phe^5,D-βNal^7,Ile^8]desArg^9BK",not cleaved,[7],Peptide metabolism 0 % (60 min)
same,not cleaved,[8],Peptide metabolism 0 % (60 min)
"Ac-Orn[Oic^2,Oic^3(α-Me)Phe^5,D-βNal^7,Ile^8]desArg^9BK",Antagonist potencies (pA2) BKB1-R rbA,[5],8.30 ± 0.08
same,Antagonist potencies (pA2) BKB2-R rbJV,[6],<6.00
Lys-[Leu^8] desArg^9BK,cleaved bond,[7],Phe5-Ser6
same,fragment found,[8],[Leu^8]desArg^9BK
RPPGFSPFR,cleaved bond,[9],Phe8-Arg9
same,cleaved bond,[10],Phe8-Arg9
